Results reported in patent publication US20090232750A1, “Compositions for indoor tanning” (priority 2008, published 2009).

Experiments:
skin = assay: Preliminary experiments: D-ribose without penetrant applied to wound or skin; format: in vivo
Excerpt: Since the object of this invention is to deliver active ingredient to the basal and dermal cells below the epidermis, when the skin barrier is intact, it has been found necessary to include a penetrant in the solutions, lotions or creams of this invention. Such a penetrant will enhance the delivery of active ingredient by transitory disruption of the cell to cell connections of the skin. Penetrants in general include ionic detergents, non-ionic detergents, fatty acids, organic solvents and oils. Certain constructs such as liposomes and nanoparticles can also be used to transport active ingredient through the stratum corneum barrier. It is well known in the industry to select a penetrant with the desired characteristics, which vary in effect from the intense penetration of the solvent dimethyl sulfoxide (DMSO) which cause the rapid co-transport past the skin barrier of any agent present on the skin, to the milder action of dilute ethanol. Of recent interest are the constructs termed liposomes and nanoparticles, which are molecules that form closed structures that can incorporate an active ingredient. Liposomes and nanoparticles can readily penetrate otherwise impermeable barriers.
The skin is a barrier. […]

[1] = system: fibroblasts in the basal layer; details: cited from earlier work
skeletal muscle ATP = details: oral administration; U.S. Pat. Nos. 6,159,942 and 6,534,480; cited from earlier work
lymphocytes = details: cell culture; U.S. Pat. No. 6,663,859; cited from earlier work
[2] = system: cultured normal human fibroblasts; details: cited from earlier work
skin (tanning) = assay: D-ribose lotion tested against commercial tanning creams on upper front thigh; format: in vivo
Procedure: In other experiments, D-ribose was tested against Jergen's Dark Tanning cream on the upper front thigh of the subject. Each was applied liberally over a six inch by four inch area twice a day for five days. The “tanning” agent in this cream is unknown. The areas on which the Jergen's was applied tanned in 36 hours, hit maximum darkness in two days and faded in eight days. […] In this test, the D-ribose caused maximum darkness in five days and persisted for two weeks after application was discontinued.
D-ribose was also tested against l'Oreal Sublime Glow as above. The active ingredients in this cream were 7.5% octinoate, octsalate 5.0%, octocrylene 3.0% and oxybenzone 6.17%. […] This color began fading within two days of last application and was completely faded within a week.
The evenness of the D-ribose tanned areas can be attributed to the natural production of melanin due to the stimulation by D-ribose penetrating and diffusing to the dermal cells.

melanocytes [3] = assay: Effect of D-ribose on melanocytes in vivo: four concentrations in commercial lotion on inside forearm; details: for Days to maximum tan / Days to first sign of tanning: twice a day, inside forearm; for Days to first sign of tanning: no sun light; for Spread of tanned area beyond the application site: two inch application area
Excerpt: To determine the effect of D-ribose on melanocytes, the dermal cells that produce a tanning color when exposed to sunlight, four concentrations of D-ribose suspended in a commercial lotion were applied with a cotton applicator twice a day to two inch areas of A subject's inside forearm. The test area was not exposed to sun light. The composition of the lotion was: water, glycerin, mineral oil, stearic acid, glycol stearate, stearamide AMP, petrolatum, dimethicone, chamomile, helianthus, sambucas, theobroma, seed butter, glyceryl, stearate, cetyl alcohol, triethanolamine, acetylated lanolin alcohol and cetyl acetate. The results are shown in Table I. Application was stopped after 11 days. Color began to fade at 14 days in all cases and was gone about two weeks after last application. […] The color spread, presumably because of lateral diffusion of the D-ribose within the dermis, stimulating melanocytes outside the application site. The spread area decreased in intensity of color as the diffused D-ribose decreased in concentration.

melanocytes [4] = assay: 4% D-ribose lotion on back of forearm, applied one to four days (melanocyte stimulation vs Maillard reaction); format: in vivo
Excerpt: In order to ascertain that the tan color was due to the stimulation of melanocytes and not to a chemical reaction such as the Maillard reaction, the subject applied 4% D-ribose in the above referenced lotion to the back of the forearm. The lotion was applied one day only; two days; three days; and four days. […] By one week after application, the areas to which lotion was applied for one or two days began fading and were completely faded by ten days. The areas to which was applied for three or four days also began fading at one week after application and were completely faded by ten days after last application. The subject had areas of vitilago, a scar and freckles.

[5] = composition containing 1% D-ribose, female volunteers
[6] = upper front thigh, twice a day for five days
[7] = all cases, application stopped after 11 days
[8] = 4% D-ribose lotion applied for one or two days
[9] = 4% D-ribose lotion applied for three or four days

O=C[C@H](O)[C@H](O)[C@H](O)CO [D-ribose]
Effect on tanning (skin; D-ribose in water applied to the skin, no penetrant): no effect on tanning
Effect on improving skin (skin; preliminary application of ribose without penetrant): unsuccessful
Effect on face wrinkles [1, 5]: reduce face wrinkles
Tanning effect [1, 5]: No tanning effect
Melanin formation ([1]; lower amounts of D-ribose, as noted in the '707 application): do not stimulate melanin formation
Effect on ATP levels in skeletal muscle (skeletal muscle ATP): raises ATP levels in skeletal muscle
Effect on growth of lymphocytes (lymphocytes): stimulates the growth of lymphocytes
Effect on fibroblasts subjected to hypoxic shock [2]: protective effect
Uniformity of tanned area (skin (tanning); all experiments): uniform and not blotchy
Persistence of tan after application was discontinued (skin (tanning); [6]): two
Time to maximum darkness (skin (tanning); [6]): five
Spread of color beyond area of application (skin (tanning); upper front thigh, twice a day for five days, D-ribose at 4% in lotion): spread beyond the area of application
Days to maximum tan (melanocytes [3]; 1.0% w/v D-ribose in lotion): No tanning
Days to first sign of tanning (melanocytes [3]; 1.0% w/v D-ribose in lotion): No tanning
Color of spread area versus center of application (melanocytes [3]; 4% w/v D-ribose): diameter. The spread area is not as dark as the
Days to maximum tan (melanocytes [3]; 4% w/v D-ribose in lotion): Six
Days to first sign of tanning (melanocytes [3]; 4% w/v D-ribose in lotion): Four
Diameter of tanned area (melanocytes [3]; 4% w/v D-ribose, at six days): the tanned area is about four inches in
Spread of tanned area beyond the application site (melanocytes [3]; 4% w/v D-ribose, at six days): two inches beyond the application site, that is,
Color of tan compared with other concentration (melanocytes [3]; 6% w/v D-ribose): A little darker than the 4%, the tanned area has
Diameter of tanned area (melanocytes [3]; 6% w/v D-ribose): site, that is, the tanned area is about four inches
Days to maximum tan (melanocytes [3]; 6% w/v D-ribose in lotion): Six
Days to first sign of tanning (melanocytes [3]; 6% w/v D-ribose in lotion): Four
Spread of tanned area beyond the application site (melanocytes [3]; 6% w/v D-ribose): spread about two inches beyond the application
Color of tan compared with other concentration (melanocytes [3]; 10% w/v D-ribose): the same as for the 6%.
Diameter of tanned area (melanocytes [3]; 10% w/v D-ribose): is now about eight inches in diameter. Color is
Days to maximum tan (melanocytes [3]; 10% w/v D-ribose in lotion): Six
Days to first sign of tanning (melanocytes [3]; 10% w/v D-ribose in lotion): Four
Spread of tanned area beyond the application site (melanocytes [3]; 10% w/v D-ribose): The tanned area has spread about three inches
Day at which color began to fade (melanocytes [3]; [7]): 14 days
Time after last application until color was gone (melanocytes [3]; [7]): about two
Intensity of tan reached (melanocytes [3]; fair-skinned subject): medium intensity
Quality of tan color (melanocytes [3]; fair-skinned subject): identical to that resulting from normal sun tanning
Tanning by day three (melanocytes [4]; 4% D-ribose in lotion, back of forearm, all four areas (applied one, two, three, four days)): lightly tanned
Time after application at which areas began fading (melanocytes [4]; [8]): one
Time until completely faded (melanocytes [4]; [8]): ten
Time after application at which areas began fading (melanocytes [4]; [9]): one
Time after last application until completely faded (melanocytes [4]; [9]): ten
Tanning of areas of vitilago and scarring (melanocytes [4]; subject's areas of vitilago and a scar): did not tan
Effect on freckles (melanocytes [4]; subject's freckles): got darker
